In US10131652B2, “Pyrimidinyloxy benzene derivatives as herbicides” (E. I. DU PONT DE NEMOURS AND COMPANY, priority 2014, dated 2018):

Assays:
Test in all cases: Test D pre-/postemergence plant response
Assay type in all cases: in vivo
[1] = test system: johnsongrass (Sorghum halepense); details: Postemergence; for Johnsongrass plant response rating: 31 g ai/ha, scale 0 to 100 (0 no effect, 100 complete control); for Plant response rating, Johnsongrass: scale 0 to 100, 0 no effect, 100 complete control
In short: (§1)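 Test chemicals were formulated in a non-phytotoxic solvent mixture containing surfactant and applied either preemergence to seeds in loam–sand soil or postemergence to plants 2 to 18 cm tall (1- to 4-leaf stage). Response was rated visually against controls after 13 to 15 days, from 0 (none) to 100 (complete control).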

[2] = test system: Italian ryegrass (Lolium multiflorum); details: Postemergence; for Ryegrass, Italian plant response rating: 31 g ai/ha, scale 0 to 100 (0 no effect, 100 complete control); for Plant response rating, Ryegrass, Italian: scale 0 to 100, 0 no effect, 100 complete control
In short: as §1

[3] = test system: lambsquarters (Chenopodium album); details: Postemergence; for Lambsquarters plant response rating: 31 g ai/ha, scale 0 to 100 (0 no effect, 100 complete control); for Plant response rating, Lambsquarters: scale 0 to 100, 0 no effect, 100 complete control
In short: as §1

[4] = test system: blackgrass (Alopecurus myosuroides); details: Postemergence; for Blackgrass plant response rating: scale 0 to 100 (0 no effect, 100 complete control); for Plant response rating, Blackgrass: scale 0 to 100, 0 no effect, 100 complete control
In short: as §1

[5] = test system: soybean (Glycine max); details: Postemergence; for Soybean plant response rating: 31 g ai/ha, scale 0 to 100 (0 no effect, 100 complete control); for Plant response rating, Soybean: scale 0 to 100, 0 no effect, 100 complete control
In short: as §1

[6] = test system: waterhemp (common waterhemp, Amaranthus rudis); details: Postemergence; for Waterhemp plant response rating: 31 g ai/ha, scale 0 to 100 (0 no effect, 100 complete control); for Plant response rating, Waterhemp: scale 0 to 100, 0 no effect, 100 complete control
In short: as §1

[7] = test system: ragweed (common ragweed, Ambrosia elatior); details: Postemergence; for Ragweed plant response rating: 31 g ai/ha, scale 0 to 100 (0 no effect, 100 complete control); for Plant response rating, Ragweed: scale 0 to 100, 0 no effect, 100 complete control
In short: as §1

[8] = test system: velvetleaf (Abutilon theophrasti); details: Postemergence; for Velvetleaf plant response rating: 31 g ai/ha, scale 0 to 100 (0 no effect, 100 complete control); for Plant response rating, Velvetleaf: scale 0 to 100, 0 no effect, 100 complete control
In short: as §1

[9] = test system: winter wheat (Triticum aestivum); details: Postemergence; for Wheat plant response rating: 31 g ai/ha, scale 0 to 100 (0 no effect, 100 complete control); for Plant response rating, Wheat: scale 0 to 100, 0 no effect, 100 complete control
In short: as §1

[10] = test system: giant foxtail (Setaria faberii); details: Postemergence; for Foxtail, Giant plant response rating: scale 0 to 100 (0 no effect, 100 complete control); for Plant response rating, Foxtail, Giant: scale 0 to 100, 0 no effect, 100 complete control
In short: as §1

[11] = test system: galium (catchweed bedstraw, Galium aparine); details: Postemergence; for Galium plant response rating: 31 g ai/ha, scale 0 to 100 (0 no effect, 100 complete control); for Plant response rating, Galium: scale 0 to 100, 0 no effect, 100 complete control
In short: as §1

[12] = test system: pigweed (Amaranthus retroflexus); details: Postemergence; for Pigweed plant response rating: 31 g ai/ha, scale 0 to 100 (0 no effect, 100 complete control); for Plant response rating, Pigweed: scale 0 to 100, 0 no effect, 100 complete control
In short: as §1

[13] = test system: large (Lg) crabgrass (Digitaria sanguinalis); details: Postemergence; for Crabgrass, Large plant response rating: scale 0 to 100 (0 no effect, 100 complete control); for Plant response rating, Crabgrass, Large: scale 0 to 100, 0 no effect, 100 complete control
In short: as §1

[14] = test system: morningglory (Ipomoea coccinea); details: Postemergence; for Morningglory plant response rating: 31 g ai/ha, scale 0 to 100 (0 no effect, 100 complete control); for Plant response rating, Morningglory: scale 0 to 100, 0 no effect, 100 complete control
In short: as §1

[15] = test system: yellow nutsedge (Cyperus esculentus); details: Postemergence; for Nutsedge, Yellow plant response rating: 31 g ai/ha, scale 0 to 100 (0 no effect, 100 complete control); for Plant response rating, Nutsedge, Yellow: scale 0 to 100, 0 no effect, 100 complete control
In short: as §1

[16] = test system: barnyardgrass (Echinochloa crus-galli); details: Postemergence; for Barnyardgrass plant response rating: scale 0 to 100 (0 no effect, 100 complete control); for Plant response rating, Barnyardgrass: scale 0 to 100, 0 no effect, 100 complete control
In short: as §1

[17] = test system: oilseed rape (Brassica napus); details: Postemergence; for Oilseed Rape plant response rating: 31 g ai/ha, scale 0 to 100 (0 no effect, 100 complete control); for Plant response rating, Oilseed Rape: scale 0 to 100, 0 no effect, 100 complete control
In short: as §1

[18] = test system: corn (Zea mays); details: Postemergence; for Corn plant response rating: scale 0 to 100 (0 no effect, 100 complete control); for Plant response rating, Corn: scale 0 to 100, 0 no effect, 100 complete control
In short: as §1

Cc1cc(-c2ccccc2Oc2ncc(Cl)cn2)no1 [Compound 153]
Johnsongrass plant response rating [1]: 0
Plant response rating, Johnsongrass ([1]; 62 g ai/ha): 5
Plant response rating, Johnsongrass ([1]; 125 g ai/ha): 10
Ryegrass, Italian plant response rating [2]: 0
Plant response rating, Ryegrass, Italian ([2]; 62 g ai/ha): 0
Plant response rating, Ryegrass, Italian ([2]; 125 g ai/ha): 0
Lambsquarters plant response rating [3]: 35
Plant response rating, Lambsquarters ([3]; 62 g ai/ha): 30
Plant response rating, Lambsquarters ([3]; 125 g ai/ha): 50
Blackgrass plant response rating ([4]; 16 g ai/ha): 0
Blackgrass plant response rating ([4]; 31 g ai/ha): 0
Plant response rating, Blackgrass ([4]; 62 g ai/ha): 0
Plant response rating, Blackgrass ([4]; 125 g ai/ha): 0
Soybean plant response rating [5]: 40
Plant response rating, Soybean ([5]; 62 g ai/ha): 70
Plant response rating, Soybean ([5]; 125 g ai/ha): 90
Waterhemp plant response rating [6]: 10
Plant response rating, Waterhemp ([6]; 62 g ai/ha): 35
Plant response rating, Waterhemp ([6]; 125 g ai/ha): 65
Ragweed plant response rating [7]: 10
Plant response rating, Ragweed ([7]; 62 g ai/ha): 25
Plant response rating, Ragweed ([7]; 125 g ai/ha): 55
Velvetleaf plant response rating [8]: 20
Plant response rating, Velvetleaf ([8]; 62 g ai/ha): 60
Plant response rating, Velvetleaf ([8]; 125 g ai/ha): 50
Wheat plant response rating [9]: 0
Plant response rating, Wheat ([9]; 62 g ai/ha): 5
Plant response rating, Wheat ([9]; 125 g ai/ha): 10
Foxtail, Giant plant response rating ([10]; 16 g ai/ha): 0
Foxtail, Giant plant response rating ([10]; 31 g ai/ha): 0
Plant response rating, Foxtail, Giant ([10]; 62 g ai/ha): 5
Plant response rating, Foxtail, Giant ([10]; 125 g ai/ha): 5
Galium plant response rating [11]: 70
Plant response rating, Galium ([11]; 62 g ai/ha): 70
Plant response rating, Galium ([11]; 125 g ai/ha): 80
Pigweed plant response rating [12]: 20
Plant response rating, Pigweed ([12]; 62 g ai/ha): 40
Plant response rating, Pigweed ([12]; 125 g ai/ha): 70
Crabgrass, Large plant response rating ([13]; 16 g ai/ha): 0
Crabgrass, Large plant response rating ([13]; 31 g ai/ha): 5
Plant response rating, Crabgrass, Large ([13]; 62 g ai/ha): 5
Plant response rating, Crabgrass, Large ([13]; 125 g ai/ha): 10
Morningglory plant response rating [14]: 5
Plant response rating, Morningglory ([14]; 62 g ai/ha): 15
Plant response rating, Morningglory ([14]; 125 g ai/ha): 25
Nutsedge, Yellow plant response rating [15]: 0
Plant response rating, Nutsedge, Yellow ([15]; 62 g ai/ha): 5
Plant response rating, Nutsedge, Yellow ([15]; 125 g ai/ha): 5
Barnyardgrass plant response rating ([16]; 16 g ai/ha): 5
Barnyardgrass plant response rating ([16]; 31 g ai/ha): 5
Plant response rating, Barnyardgrass ([16]; 62 g ai/ha): 5
Plant response rating, Barnyardgrass ([16]; 125 g ai/ha): 5
Oilseed Rape plant response rating [17]: 40
Plant response rating, Oilseed Rape ([17]; 62 g ai/ha): 60
Plant response rating, Oilseed Rape ([17]; 125 g ai/ha): 85
Corn plant response rating ([18]; 16 g ai/ha): 0
Corn plant response rating ([18]; 31 g ai/ha): 0
Plant response rating, Corn ([18]; 62 g ai/ha): 5
Plant response rating, Corn ([18]; 125 g ai/ha): 5

FC(F)(F)c1cc(-c2c(I)cccc2Oc2ncc(Cl)cn2)no1 [Compound 156]
Plant response rating (scale 0 to 100), Johnsongrass ([1]; 8 g ai/ha): 0
Johnsongrass plant response rating [1]: 5
Plant response rating, Johnsongrass ([1]; 62 g ai/ha): 10
Plant response rating (scale 0 to 100), Ryegrass, Italian ([2]; 8 g ai/ha): 0
Ryegrass, Italian plant response rating [2]: 0
Plant response rating, Ryegrass, Italian ([2]; 62 g ai/ha): 0
Plant response rating (scale 0 to 100), Lambsquarters ([3]; 8 g ai/ha): 10
Lambsquarters plant response rating [3]: 35
Plant response rating, Lambsquarters ([3]; 62 g ai/ha): 40
Plant response rating (scale 0 to 100), Blackgrass ([4]; 8 g ai/ha): 0
Blackgrass plant response rating ([4]; 16 g ai/ha): 0
Blackgrass plant response rating ([4]; 31 g ai/ha): 5
Plant response rating, Blackgrass ([4]; 62 g ai/ha): 5
Plant response rating (scale 0 to 100), Soybean ([5]; 8 g ai/ha): 5
Soybean plant response rating [5]: 25
Plant response rating, Soybean ([5]; 62 g ai/ha): 30
Plant response rating (scale 0 to 100), Waterhemp ([6]; 8 g ai/ha): 5
Waterhemp plant response rating [6]: 70
Plant response rating, Waterhemp ([6]; 62 g ai/ha): 90
Plant response rating (scale 0 to 100), Ragweed ([7]; 8 g ai/ha): 0
Ragweed plant response rating [7]: 10
Plant response rating, Ragweed ([7]; 62 g ai/ha): 15
Plant response rating (scale 0 to 100), Velvetleaf ([8]; 8 g ai/ha): 0
Velvetleaf plant response rating [8]: 15
Plant response rating, Velvetleaf ([8]; 62 g ai/ha): 25
Plant response rating (scale 0 to 100), Wheat ([9]; 8 g ai/ha): 0
Wheat plant response rating [9]: 5
Plant response rating, Wheat ([9]; 62 g ai/ha): 10
Plant response rating (scale 0 to 100), Foxtail, Giant ([10]; 8 g ai/ha): 0
Foxtail, Giant plant response rating ([10]; 16 g ai/ha): 5
Foxtail, Giant plant response rating ([10]; 31 g ai/ha): 10
Plant response rating, Foxtail, Giant ([10]; 62 g ai/ha): 35
Plant response rating (scale 0 to 100), Galium ([11]; 8 g ai/ha): 20
Galium plant response rating [11]: 60
Plant response rating, Galium ([11]; 62 g ai/ha): 70
Plant response rating (scale 0 to 100), Pigweed ([12]; 8 g ai/ha): 15
Pigweed plant response rating [12]: 60
Plant response rating, Pigweed ([12]; 62 g ai/ha): 75
Plant response rating (scale 0 to 100), Crabgrass, Large ([13]; 8 g ai/ha): 0
Crabgrass, Large plant response rating ([13]; 16 g ai/ha): 5
Crabgrass, Large plant response rating ([13]; 31 g ai/ha): 5
Plant response rating, Crabgrass, Large ([13]; 62 g ai/ha): 10
Plant response rating (scale 0 to 100), Morningglory ([14]; 8 g ai/ha): 5
Morningglory plant response rating [14]: 15
Plant response rating, Morningglory ([14]; 62 g ai/ha): 65
Plant response rating (scale 0 to 100), Nutsedge, Yellow ([15]; 8 g ai/ha): 0
Nutsedge, Yellow plant response rating [15]: 5
Plant response rating, Nutsedge, Yellow ([15]; 62 g ai/ha): 5
Plant response rating (scale 0 to 100), Barnyardgrass ([16]; 8 g ai/ha): 0
Barnyardgrass plant response rating ([16]; 16 g ai/ha): 0
Barnyardgrass plant response rating ([16]; 31 g ai/ha): 0
Plant response rating, Barnyardgrass ([16]; 62 g ai/ha): 5
Plant response rating (scale 0 to 100), Oilseed Rape ([17]; 8 g ai/ha): 5
Oilseed Rape plant response rating [17]: 40
Plant response rating, Oilseed Rape ([17]; 62 g ai/ha): 45
Plant response rating (scale 0 to 100), Corn ([18]; 8 g ai/ha): 0
Corn plant response rating ([18]; 16 g ai/ha): 5
Corn plant response rating ([18]; 31 g ai/ha): 5
Plant response rating, Corn ([18]; 62 g ai/ha): 5
